Source: patent US20230233569A1 (Revolution Medicines, Inc., priority 2020, published 2023)

Assays:
[1] = molecular target: KRAS G13D (Homo sapiens, UniProt P01116+P62937, G13D); assay: Disruption of BRAF RBD interaction with Ras (FRET / MOA assay, with Cyclophilin A); format: biochemical; settings: KRAS G13D; read-out: KRAS G13D FRET data IC50
Summary of the method: (§1)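 TR-FRET readout: a drop in ratio relative to DMSO wells marks disruption of the K-Ras:BRAF RBD complex via compound-induced K-Ras–Cyclophilin A ternary complex. Dosing used ten 3-fold steps from 30 μM final, 3 h at 25 °C, then Eu-anti-His 10 nM plus APC-anti-GST 50 nM for another 1.5 h. Values are IC50s.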

[2] = molecular target: KRAS G13C (Homo sapiens, UniProt P01116+P62937, G13C); assay: as above; format: biochemical; settings: read-out: KRAS G13C FRET data, IC50
Chain of KRAS G13C (P01116 1-169 isoform P01116-2 G13C): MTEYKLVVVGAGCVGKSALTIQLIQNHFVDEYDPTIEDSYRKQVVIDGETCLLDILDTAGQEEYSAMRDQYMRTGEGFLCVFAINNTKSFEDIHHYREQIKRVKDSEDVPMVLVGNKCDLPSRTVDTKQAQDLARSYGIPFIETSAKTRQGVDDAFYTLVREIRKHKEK
Chain of KRAS G13C (P62937 whole entry): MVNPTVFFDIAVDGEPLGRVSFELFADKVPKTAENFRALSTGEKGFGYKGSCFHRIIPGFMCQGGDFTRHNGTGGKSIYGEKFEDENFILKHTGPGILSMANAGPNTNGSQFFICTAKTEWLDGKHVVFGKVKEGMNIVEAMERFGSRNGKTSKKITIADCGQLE
Summary of the method: as §1

[3] = molecular target: KRAS WT (Homo sapiens, UniProt P01116+P62937); assay: as above; format: biochemical; settings: KRAS WT; read-out: KRAS WT FRET data IC50
Chain of KRAS WT (P01116 1-169 isoform P01116-2 limits assumed): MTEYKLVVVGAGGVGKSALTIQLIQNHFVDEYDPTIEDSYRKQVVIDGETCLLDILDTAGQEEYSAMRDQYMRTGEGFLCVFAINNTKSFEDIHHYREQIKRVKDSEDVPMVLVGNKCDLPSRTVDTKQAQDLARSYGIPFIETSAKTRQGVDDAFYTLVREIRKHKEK
Chain of KRAS WT (P62937 whole entry): as the sequence (P62937 whole entry) above
Summary of the method: as §1

[4] = molecular target: KRAS G12D (Homo sapiens, UniProt P01116+P62937, G12D); assay: as above; format: biochemical; settings: read-out: KRAS G12D FRET data, IC50
Chain of KRAS G12D (P01116 1-169 isoform P01116-2 G12D limits assumed): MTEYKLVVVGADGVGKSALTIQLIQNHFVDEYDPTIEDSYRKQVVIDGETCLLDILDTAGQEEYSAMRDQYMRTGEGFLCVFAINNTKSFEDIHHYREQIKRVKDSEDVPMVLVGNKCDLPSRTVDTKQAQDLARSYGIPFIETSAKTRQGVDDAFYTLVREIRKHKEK
Chain of KRAS G12D (P62937 whole entry): as the sequence (P62937 whole entry) above
Summary of the method: as §1

[5] = molecular target: NRAS G12C (Homo sapiens, UniProt P01111+P62937, G12C); assay: as above; format: biochemical; settings: NRAS G12C; read-out: NRAS G12C FRET data IC50
Chain of NRAS G12C (P01111 whole entry G12C): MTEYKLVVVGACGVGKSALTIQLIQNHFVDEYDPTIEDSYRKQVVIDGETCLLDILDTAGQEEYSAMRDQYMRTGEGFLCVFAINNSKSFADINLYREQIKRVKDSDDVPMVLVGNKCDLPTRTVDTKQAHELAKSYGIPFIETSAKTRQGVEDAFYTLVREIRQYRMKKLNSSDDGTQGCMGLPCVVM
Chain of NRAS G12C (P62937 whole entry): as the sequence (P62937 whole entry) above

[6] = molecular target: KRAS G12C (Homo sapiens, UniProt P01116+P62937, G12C); assay: as above; format: biochemical; settings: read-out: KRAS G12C FRET data, IC50
Chain of KRAS G12C (P01116 1-169 isoform P01116-2 G12C): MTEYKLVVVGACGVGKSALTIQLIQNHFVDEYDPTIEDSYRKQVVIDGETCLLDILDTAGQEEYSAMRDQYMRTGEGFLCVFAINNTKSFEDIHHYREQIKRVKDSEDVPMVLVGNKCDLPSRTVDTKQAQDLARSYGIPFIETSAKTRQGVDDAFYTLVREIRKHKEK
Chain of KRAS G12C (P62937 whole entry): as the sequence (P62937 whole entry) above
Summary of the method: as §1

[7] = molecular target: KRAS G12S (Homo sapiens, UniProt P01116+P62937, G12S); assay: as above; format: biochemical; settings: read-out: KRAS G12S FRET data, IC50
Chain of KRAS G12S (P01116 1-169 isoform P01116-2 G12S limits assumed): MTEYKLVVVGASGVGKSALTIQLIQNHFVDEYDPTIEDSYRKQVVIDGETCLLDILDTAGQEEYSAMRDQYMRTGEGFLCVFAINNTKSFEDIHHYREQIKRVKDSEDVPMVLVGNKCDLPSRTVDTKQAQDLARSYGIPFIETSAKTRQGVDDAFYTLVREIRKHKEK
Chain of KRAS G12S (P62937 whole entry): as the sequence (P62937 whole entry) above
Summary of the method: as §1

[8] = molecular target: KRAS G12V (Homo sapiens, UniProt P01116+P62937, G12V); assay: as above; format: biochemical; settings: KRAS G12V; read-out: KRAS G12V FRET data IC50
Chain of KRAS G12V (P01116 1-169 isoform P01116-2 G12V limits assumed): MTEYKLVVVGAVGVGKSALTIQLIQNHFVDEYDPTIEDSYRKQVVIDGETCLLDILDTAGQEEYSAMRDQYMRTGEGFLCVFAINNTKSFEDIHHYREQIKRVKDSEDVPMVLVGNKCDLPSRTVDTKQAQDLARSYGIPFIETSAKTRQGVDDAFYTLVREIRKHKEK
Chain of KRAS G12V (P62937 whole entry): as the sequence (P62937 whole entry) above
Summary of the method: as §1

[9] = test system: NCI-H358 (K-Ras G12C); assay: CellTiter-Glo cell viability assay, 5-day treatment; format: cell-based; settings: Homo sapiens, NCI-H358, 120 h, 5-day treatment; read-out: H358 Cell Viability assay data (K-Ras G12C, IC50)
Summary of the method: (§2)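 Compounds were dispensed directly onto seeded cells and incubated for 5 days, then plates were equilibrated to room temperature for about 30 minutes before luminescence reading. Signals were expressed as percent of the mean DMSO control and fitted with a four-parameter logistic curve.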

[10] = test system: Capan-1 (K-Ras G12V); assay: as above; format: cell-based; settings: Homo sapiens, CAPAN-1, 120 h, 5-day treatment; read-out: Capan-1 Cell Viability assay data (K-Ras G12V, IC50)
Summary of the method: as §2

[11] = molecular target: NRAS Q61R (Homo sapiens, UniProt P01111+P62937, Q61R); assay: Disruption of BRAF RBD interaction with Ras (FRET / MOA assay, with Cyclophilin A); format: biochemical; settings: NRAS Q61R; read-out: NRAS Q61R FRET data IC50
Chain of NRAS Q61R (P01111 whole entry Q61R): as the sequence (P01111 whole entry G12C) above, with C12G, Q61R counted along it
Chain of NRAS Q61R (P62937 whole entry): as the sequence (P62937 whole entry) above
Summary of the method: (§3)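 TR-FRET in 25 mM HEPES pH 7.3, 100 mM NaCl, 5 mM MgCl2, 0.1% BSA: 25 μM Cyclophilin A, 12.5 nM His6-Ras-GMPPNP, 50 nM GST-BRAF RBD with compound (10-point 3-fold series from 30 μM), 3 h at 25° C. Anti-His Eu/anti-GST APC added, 1.5 h more; IC50 from decreased FRET ratio versus DMSO.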

[12] = molecular target: NRAS Q61K (Homo sapiens, UniProt P01111+P62937, Q61K); assay: as above; format: biochemical; settings: NRAS Q61K; read-out: NRAS Q61K FRET data IC50
Chain of NRAS Q61K (P01111 whole entry Q61K): as the sequence (P01111 whole entry G12C) above, with C12G, Q61K counted along it
Chain of NRAS Q61K (P62937 whole entry): as the sequence (P62937 whole entry) above
Summary of the method: as §3

[13] = molecular target: NRAS WT (Homo sapiens, UniProt P01111+P62937); assay: as above; format: biochemical; settings: NRAS WT; read-out: NRAS WT FRET data IC50
Chain of NRAS WT (P01111 whole entry): as the sequence (P01111 whole entry G12C) above, with C12G counted along it
Chain of NRAS WT (P62937 whole entry): as the sequence (P62937 whole entry) above
Summary of the method: as §3

[14] = molecular target: KRAS Q61H (Homo sapiens, UniProt P01116+P62937, Q61H); assay: as above; format: biochemical; settings: KRAS Q61H; read-out: KRAS Q61H FRET data IC50
Chain of KRAS Q61H (P01116 1-169 isoform P01116-2 Q61H limits assumed): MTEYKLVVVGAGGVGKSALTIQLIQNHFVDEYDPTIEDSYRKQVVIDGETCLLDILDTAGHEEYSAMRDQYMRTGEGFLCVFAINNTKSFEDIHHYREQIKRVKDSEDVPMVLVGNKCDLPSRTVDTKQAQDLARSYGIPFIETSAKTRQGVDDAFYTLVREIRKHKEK
Chain of KRAS Q61H (P62937 whole entry): as the sequence (P62937 whole entry) above
Summary of the method: as §3

Chain of KRAS G13D (P01116 1-169 isoform P01116-2 G13D limits assumed): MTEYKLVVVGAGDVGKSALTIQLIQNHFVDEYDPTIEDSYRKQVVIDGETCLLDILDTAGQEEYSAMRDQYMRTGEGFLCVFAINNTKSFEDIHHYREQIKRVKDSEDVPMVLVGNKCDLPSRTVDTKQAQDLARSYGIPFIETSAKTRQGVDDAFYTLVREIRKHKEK
Chain of KRAS G13D (P62937 whole entry): as the sequence (P62937 whole entry) above

Row | Structure (SMILES) | IC50 [1] [nM] | IC50 [2] [nM] | IC50 [3] [nM] | IC50 [4] [nM] | IC50 [5] [nM] | IC50 [6] [nM] | IC50 [7] [nM] | IC50 [8] [nM] | IC50 [9] [nM] | IC50 [10] [nM] | IC50 [11] [nM] | IC50 [12] [nM] | IC50 [13] [nM] | IC50 [14] [nM]
1 | CCn1c(-c2cccnc2[C@H](C)OC)c2c3cc(ccc31)-c1cc(O)cc(c1)C[C@H](NC(=O)[C@H](C(C)C)N(C)C(=O)[C@H]1C[C@@H]1C)C(=O)N1CCC[C@H](N1)C(=O)OCC(C)(C)C2 [Example A287] | 100 to 1000 | 100 to 1000 | 10 to 100 | 100 to 1000 | 100 to 1000 | 100 to 1000 | 100 to 1000 | 100 to 1000 | 100 to 1000 | 100 to 1000 | 100 to 1000 | 100 to 1000 | 10 to 100 | 10 to 100
2 | CCn1c(-c2cccnc2[C@H](C)OC)c2c3cc(ccc31)-c1csc(n1)C[C@H](NC(=O)[C@H](C(C)C)N(C)C(=O)N1CC(CN(C)C)(OC)C1)C(=O)N1CCC[C@H](N1)C(=O)OCC(C)(C)C2 (atropisomer, axis not shown) [Example A575] | 1000 to 10000 | 1000 to 10000 | 1000 to 10000 | 1000 to 10000 | 1000 to 10000 | 1000 to 10000 | 1000 to 10000 | 1000 to 10000 | 100 to 1000 | 100 to 1000 | 1000 to 10000 | 1000 to 10000 | 1000 to 10000 | 1000 to 10000
3 | CCn1c(-c2cccnc2[C@H](C)OC)c2c3cc(ccc31)-c1csc(n1)C[C@H](NC(=O)[C@H](C(C)C)N(C)C(=O)N1CC3(CC(N4CCOCC4)C3)C1)C(=O)N1CCC[C@H](N1)C(=O)OCC(C)(C)C2 (atropisomer, axis not shown) [Example A486] | 100 to 1000 | 100 to 1000 | 100 to 1000 | 1000 to 10000 | 100 to 1000 | 100 to 1000 | 100 to 1000 | 100 to 1000 | 10 to 100 | 10 to 100 | 100 to 1000 | 10 to 100 | 100 to 1000 | 100 to 1000
4 | CCn1c(-c2cccnc2[C@H](C)OC)c2c3cc(ccc31)-c1csc(n1)C[C@H](NC(=O)C1CCC1)C(=O)N1CCC[C@H](N1)C(=O)OCC(C)(C)C2 [Example A369] | 100 to 1000 | 100 to 1000 | 100 to 1000 | 1000 to 10000 | 100 to 1000 | 100 to 1000 | 100 to 1000 | 100 to 1000 | 100 to 1000 | 100 to 1000 | 100 to 1000 | 100 to 1000 | 100 to 1000 | 100 to 1000
5 | CCn1c(-c2cccnc2[C@H](C)OC)c2c3cc(ccc31)-c1cc(O)cc(c1)C[C@H](NC(=O)[C@H](C(C)C)N(C)C(=O)C1CN(C)C1)C(=O)N1CCC[C@H](N1)C(=O)OCC(C)(C)C2 (atropisomer, axis not shown) [Example A124] | 10 to 100 | 10 to 100 | 10 to 100 | 10 to 100 | 100 to 1000 | 100 to 1000 | 10 to 100 | 100 to 1000 | 100 to 1000 | 1000 to 10000 | 1000 to 10000 | 100 to 1000 | 10 to 100 | 10 to 100
6 | CCn1c(-c2cccnc2[C@H](C)OC)c2c3cc(ccc31)-c1csc(n1)C[C@H](NC(=O)[C@H](C(C)C)N(C)C(=O)N1CCN3CCOC[C@H]3C1)C(=O)N1CCC[C@H](N1)C(=O)OCC(C)(C)C2 [Example A548] | 1000 to 10000 | 100 to 1000 | 100 to 1000 | 1000 to 10000 | 100 to 1000 | 100 to 1000 | 1000 to 10000 | 100 to 1000 | 10 to 100 | 10 to 100 | 100 to 1000 | 100 to 1000 | 100 to 1000 | 100 to 1000
